{
  "source": "patent US8404643B2",
  "about": "“Metastin derivatives and use thereof” (priority 2005, dated 2013)",
  "note": "Square brackets hold non-standard residues; d marks the D form. Peptide text beside a SMILES is read from it. * marks the point of attachment. Phe(4-Cl) = N[C@@H](Cc1ccc(Cl)cc1)C(=O)O; Phe(4-F) = N[C@@H](Cc1ccc(F)cc1)C(=O)O; Arg(Me) = CNC(=N)NCCC[C@H](N)C(=O)O; Ala(cPr) = N[C@@H](CC1CC1)C(=O)O; Hyp = O=C(O)[C@@H]1C[C@@H](O)CN1; Cit = NC(=O)NCCC[C@H](N)C(=O)O; NMeS = CN[C@@H](CO)C(=O)O; NMeA = CN[C@@H](C)C(=O)O; Dab = NCC[C@H](N)C(=O)O; Glycolyl = O=C(CO)*; Ahx = NCCCCCC(=O)O; azaGly = NNC(=O)O; Sar = CNCC(=O)O",
  "data": [
    {"target": "T1, hOT7T175 (Homo sapiens, UniProt Q969F8)", "T1 construct": "expressed in transfected cells", "T1 sequence (Q969F8 whole entry L364H)": "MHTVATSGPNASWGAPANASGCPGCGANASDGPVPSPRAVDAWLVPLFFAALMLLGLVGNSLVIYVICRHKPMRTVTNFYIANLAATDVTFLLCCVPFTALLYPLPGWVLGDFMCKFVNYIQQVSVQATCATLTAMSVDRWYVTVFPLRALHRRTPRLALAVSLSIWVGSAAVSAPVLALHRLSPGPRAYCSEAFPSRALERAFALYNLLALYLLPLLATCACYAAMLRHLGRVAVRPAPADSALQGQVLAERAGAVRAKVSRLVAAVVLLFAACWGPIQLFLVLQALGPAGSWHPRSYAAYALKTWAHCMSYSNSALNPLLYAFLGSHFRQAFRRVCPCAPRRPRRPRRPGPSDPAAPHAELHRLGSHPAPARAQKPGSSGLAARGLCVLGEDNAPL", "experiment": "Assay for intracellular Ca ion level-increasing activity using FLIPR", "format": "cell-based", "conditions": "hOT7T175/CHO cells, relative to Metastin (1-54)", "procedure": "In accordance with the method described in JPA 2000-312590, the intracellular Ca ion level-increasing activity was measured using FLIPR.\nThe stable expression cell line hOT7T175 was obtained by transfection of the expression plasmid pAK-rOT175 for animal cells into CHO/dhfr^− cells, using CellPhect Transfection Kit (Amersham Pharmacia Biotech, Inc.). First, 240 μL of Buffer A (attached to CellPhect Transfection Kit) was added to 9.6 μg of plasmid DNA dissolved in 240 μL of distilled water followed by stirring. After the mixture was settled for 10 minutes, 480 μL of Buffer B (attached to CellPhect Transfection Kit) was added to the mixture, which was vigorously stirred to form liposomes containing the DNA. Then, 4×10^5 CHO/dhfr^− cells (obtained from ATCC) were inoculated on a 60 mm Petri dish. After culturing the cells in Ham's F-12 medium (Nissui Seiyaku Co., Ltd.) supplemented with 10% fetal bovine serum (BIO WHITTAKER, Inc.) at 37° C. for 2 days in 5% carbon dioxide gas, […] of the liposomes were dropwise added to the cells on the Petri dish. After culturing the cells at 37° C. for 6 hours in 5% carbon dioxide gas, the cells were washed twice with serum-free Ham's F-12 medium and 3 mL of 15% glycerol was added to the cells on the Petri dish followed by treatment for 2 minutes. The cells were again washed twice with serum-free Ham's F-12 medium followed by incubation in Ham's F-12 medium supplemented with 10% fetal bovine serum at 37° C. for 15 hours in 5% carbon dioxide gas. The cells were dispersed by trypsin treatment to recover from the Petri dish. The recovered cells were inoculated on a 6-well plate in 1.25×10^4 cells/well and incubation was initiated at 37° C. in Dulbecco's modified Eagle medium (DMEM) medium (Nissui Seiyaku Co., Ltd.) containing 10% dialyzed fetal bovine serum (JRH BIOSCIENCES, Inc.) in 5% carbon dioxide gas. The plasmid-transfected CHO transformants grew in the medium but the non-transfected cells gradually died, accordingly the medium was exchanged on Days 1 and 2 after the initiation of incubation to remove the cells died. Approximately 20 colonies of the CHO transformants that kept growing on Days 8 to 10 after the incubation were isolated. From the cells in these colonies, cells showing high reactivity with the ligand peptide metastin (hereinafter merely referred to as hOT7T175/CHO) were selected to provide for the following experiment.\nThe intracellular Ca ion level-increasing activity of the synthetic peptide in hOT7T175/CHO was determined using FLIPR (Molecular Devices, Inc.).\nhOT7T175/CHO was subcultured in DMEM supplemented with 10% dialyzed fetal bovine serum (hereinafter abbreviated as dFBS) (hereinafter referred to as 10% dFBS/DMEM) and provided for the experiment. The hOT7T175/CHO was suspended in 10% dFBS-DMEM in 15×10^4 cells/ml. The suspension was inoculated on a 96-well plate for FLIPR (Black Plate Clear Bottom, Coster, Inc.) at 200 μl/well (3.0×10^4 cells/200 μL/well), followed by incubation at 37° C. overnight in a 5% CO2 incubator (hereinafter referred to as the cell plate). Then, 21 ml of HANKS/HBSS (9.8 g of HANKS, 0.35 g of sodium hydrogencarbonate, 20 ml of 1M HEPES; after adjusting the pH to 7.4 with 1N sodium hydroxide, the mixture was sterilized by filtration), 210 μl of 250 mM Probenecid and 210 μl of fetal bovine serum (FBS) (HANKS/HBSS-Probenecid-FBS) were mixed.\nFurthermore, 2 vials of Fluo3-AM (50 μg/vial) were dissolved in 21 μL of dimethylsulfoxide and 21 μL of 20% Pluronic acid. The resulting solution was added to and mixed with 10 ml of the HANKS/HBSS-Probenecid-FBS described above. After the culture medium was removed, the mixture was dispensed onto the cell plate in 100 μl each/well, followed by incubation at 37° C. for an hour in a 5% CO2 incubator (pigment loading). The peptide was dissolved in dimethylsulfoxide in 1×10^−3 M. The peptide solution was diluted with HANKS/HBSS containing 2.5 mM Probenecid, 0.2% BSA and 0.1% CHAPS. […]", "values": [
      {"smiles": "CNC(=N)NCCC[C@H](NC(=O)[C@H](CC(C)C)NC(=O)NNC(=O)[C@H](Cc1ccccc1)NC(=O)[C@H](CO)N(C)C(=O)[C@H](CC(N)=O)NC(=O)[C@@H]1C[C@@H](O)CN1C(=O)[C@@H](Cc1ccc(O)cc1)NC(C)=O)C(=O)N[C@@H](Cc1c[nH]c2ccccc12)C(N)=O", "note": "[Compound No. 809, Ac-D-Tyr-Hyp-Asn-NMeSer-Phe-AzaGly-Leu-Arg(Me)-Trp-NH2] (Ac-[dY][Hyp]N[NMeS]F[azaGly]L[Arg(Me)]W-NH2)", "Specific Activity: intracellular Ca ion level-increasing activity [specific activity to Metastin (1-54)]": 1.0},
      {"smiles": "CNC(=N)NCCC[C@H](NC(=O)[C@H](CC(C)C)NC(=O)NNC(=O)[C@H](Cc1ccc(F)cc1)NC(=O)[C@@H](NC(=O)[C@H](CC(N)=O)NC(=O)[C@H](CCCCN)NC(=O)[C@@H](Cc1ccc(O)cc1)NC(C)=O)[C@@H](C)O)C(=O)N[C@@H](Cc1c[nH]c2ccccc12)C(N)=O", "note": "[Compound No. 789, Ac-D-Tyr-Lys-Asn-Thr-Phe(4F)-AzaGly-Leu-Arg(Me)-Trp-NH2] (Ac-[dY]KNT[Phe(4-F)][azaGly]L[Arg(Me)]W-NH2)", "Specific Activity: intracellular Ca ion level-increasing activity [specific activity to Metastin (1-54)]": 3.4},
      {"smiles": "CNC(=N)NCCC[C@H](NC(=O)[C@H](CC(C)C)NC(=O)NNC(=O)[C@H](Cc1ccccc1)NC(=O)[C@@H](NC(=O)[C@H](CC(N)=O)NC(=O)CCCCCN)[C@@H](C)O)C(=O)N[C@@H](Cc1c[nH]c2ccccc12)C(N)=O", "note": "[Compound No. 712, Acp-Asn-Thr-Phe-AzaGly-Leu-Arg(Me)-Trp-NH2] (H-[Ahx]NTF[azaGly]L[Arg(Me)]W-NH2)", "Specific Activity: intracellular Ca ion level-increasing activity [specific activity to Metastin (1-54)]": 8.9},
      {"smiles": "CNC(=N)NCCC[C@H](NC(=O)[C@H](CC(C)C)NC(=O)NNC(=O)[C@H](Cc1ccccc1)NC(=O)[C@@H](NC(=O)[C@H](CC(N)=O)NC(=O)CN(C)C(=O)[C@@H](Cc1ccc(O)cc1)NC(C)=O)[C@@H](C)O)C(=O)N[C@@H](Cc1c[nH]c2ccccc12)C(N)=O", "note": "[Compound No. 731, Ac-D-Tyr-Sar-Asn-Thr-Phe-AzaGly-Leu-Arg(Me)-Trp-NH2] (Ac-[dY][Sar]NTF[azaGly]L[Arg(Me)]W-NH2)", "Specific Activity: intracellular Ca ion level-increasing activity [specific activity to Metastin (1-54)]": 8.8},
      {"smiles": "CNC(=N)NCCC[C@H](NC(=O)[C@H](CC(C)C)NC(=O)NNC(=O)[C@H](Cc1ccccc1)NC(=O)[C@@H](NC(=O)[C@H](CC(N)=O)NC(=O)[C@H](C)N(C)C(=O)[C@@H](Cc1ccc(O)cc1)NC(C)=O)[C@@H](C)O)C(=O)N[C@@H](Cc1c[nH]c2ccccc12)C(N)=O", "note": "[Compound No. 725, Ac-D-Tyr-NMeAla-Asn-Thr-Phe-AzaGly-Leu-Arg(Me)-Trp-NH2] (Ac-[dY][NMeA]NTF[azaGly]L[Arg(Me)]W-NH2)", "Specific Activity: intracellular Ca ion level-increasing activity [specific activity to Metastin (1-54)]": 2.7},
      {"smiles": "CNC(=N)NCCC[C@H](NC(=O)[C@H](CC(C)C)NC(=O)NNC(=O)[C@H](Cc1ccc(F)cc1)NC(=O)[C@@H](NC(=O)[C@H](CC(N)=O)NC(=O)[C@@H]1C[C@@H](O)CN1C(=O)[C@@H](Cc1ccc(O)cc1)NC(C)=O)[C@@H](C)O)C(=O)N[C@@H](Cc1c[nH]c2ccccc12)C(N)=O", "note": "[Compound No. 787, Ac-D-Tyr-Hyp-Asn-Thr-Phe(4F)-AzaGly-Leu-Arg(Me)-Trp-NH2] (Ac-[dY][Hyp]NT[Phe(4-F)][azaGly]L[Arg(Me)]W-NH2)", "Specific Activity: intracellular Ca ion level-increasing activity [specific activity to Metastin (1-54)]": 2.3},
      {"smiles": "CNC(=N)NCCC[C@H](NC(=O)[C@H](CC(C)C)NC(=O)NNC(=O)[C@H](Cc1ccccc1)NC(=O)[C@@H](NC(=O)[C@H](CCN)NC(=O)[C@@H]1C[C@@H](O)CN1C(=O)[C@@H](Cc1ccc(O)cc1)NC(C)=O)[C@@H](C)O)C(=O)N[C@@H](Cc1c[nH]c2ccccc12)C(N)=O", "note": "[Compound No. 864, Ac-D-Tyr-Hyp-Dab-Thr-Phe-AzaGly-Leu-Arg(Me)-Trp-NH2] (Ac-[dY][Hyp][Dab]TF[azaGly]L[Arg(Me)]W-NH2)", "Specific Activity: intracellular Ca ion level-increasing activity [specific activity to Metastin (1-54)]": 1.0},
      {"smiles": "CNC(=N)NCCC[C@H](NC(=O)[C@H](CC(C)C)NC(=O)NNC(=O)[C@H](Cc1ccc(Cl)cc1)NC(=O)[C@@H](NC(=O)[C@H](CC(N)=O)NC(=O)[C@@H]1C[C@@H](O)CN1C(=O)[C@@H](Cc1ccc(O)cc1)NC(C)=O)[C@@H](C)O)C(=O)N[C@@H](Cc1c[nH]c2ccccc12)C(N)=O", "note": "[Compound No. 767, Ac-D-Tyr-Hyp-Asn-Thr-Phe(4Cl)-AzaGly-Leu-Arg(Me)-Trp-NH2] (Ac-[dY][Hyp]NT[Phe(4-Cl)][azaGly]L[Arg(Me)]W-NH2)", "Specific Activity: intracellular Ca ion level-increasing activity [specific activity to Metastin (1-54)]": 1.5},
      {"smiles": "CNC(=N)NCCC[C@H](NC(=O)[C@H](CC1CC1)NC(=O)NNC(=O)[C@H](Cc1ccccc1)NC(=O)[C@@H](NC(=O)[C@H](CC(N)=O)NC(=O)[C@@H]1C[C@@H](O)CN1C(=O)[C@@H](Cc1ccc(O)cc1)NC(C)=O)[C@@H](C)O)C(=O)N[C@@H](Cc1c[nH]c2ccccc12)C(N)=O", "note": "[Compound No. 856, Ac-D-Tyr-Hyp-Asn-Thr-Phe-AzaGly-Ala(cPr)-Arg(Me)-Trp-NH2] (Ac-[dY][Hyp]NTF[azaGly][Ala(cPr)][Arg(Me)]W-NH2)", "Specific Activity: intracellular Ca ion level-increasing activity [specific activity to Metastin (1-54)]": 0.6},
      {"smiles": "CNC(=N)NCCC[C@H](NC(=O)[C@H](CC(C)C)NC(=O)NNC(=O)[C@H](Cc1ccccc1)NC(=O)[C@@H](NC(=O)[C@H](CC(N)=O)NC(=O)CNC(=O)[C@@H](Cc1ccc(O)cc1)NC(C)=O)[C@@H](C)O)C(=O)N[C@@H](Cc1c[nH]c2ccccc12)C(N)=O", "note": "[Compound No. 726, Ac-D-Tyr-Gly-Asn-Thr-Phe-AzaGly-Leu-Arg(Me)-Trp-NH2] (Ac-[dY]GNTF[azaGly]L[Arg(Me)]W-NH2)", "Specific Activity: intracellular Ca ion level-increasing activity [specific activity to Metastin (1-54)]": 3.1},
      {"smiles": "CNC(=N)NCCC[C@H](NC(=O)[C@H](CC(C)C)NC(=O)NNC(=O)[C@H](Cc1ccccc1)NC(=O)[C@@H](NC(=O)[C@H](CC(N)=O)NC(=O)[C@@H]1C[C@@H](O)CN1C(=O)[C@@H](Cc1ccc(O)cc1)NC(=O)CO)[C@@H](C)O)C(=O)N[C@@H](Cc1c[nH]c2ccccc12)C(N)=O", "note": "[Compound No. 776, Glycoloyl-D-Tyr-Hyp-Asn-Thr-Phe-AzaGly-Leu-Arg(Me)-Trp-NH2] (Glycolyl-[dY][Hyp]NTF[azaGly]L[Arg(Me)]W-NH2)", "Specific Activity: intracellular Ca ion level-increasing activity [specific activity to Metastin (1-54)]": 1.5},
      {"smiles": "CNC(=N)NCCC[C@H](NC(=O)[C@H](CC(C)C)NC(=O)NNC(=O)[C@H](Cc1ccccc1)NC(=O)[C@@H](NC(=O)[C@H](CC(N)=O)NC(=O)CCCCCNC(C)=O)[C@@H](C)O)C(=O)N[C@@H](Cc1c[nH]c2ccccc12)C(N)=O", "note": "[Compound No. 713, Ac-Acp-Asn-Thr-Phe-AzaGly-Leu-Arg(Me)-Trp-NH2] (Ac-[Ahx]NTF[azaGly]L[Arg(Me)]W-NH2)", "Specific Activity: intracellular Ca ion level-increasing activity [specific activity to Metastin (1-54)]": 3.7},
      {"smiles": "CNC(=N)NCCC[C@H](NC(=O)[C@H](CC(C)C)NC(=O)NNC(=O)[C@H](Cc1ccccc1)NC(=O)[C@@H](NC(=O)[C@H](CCCNC(N)=O)NC(=O)[C@@H]1C[C@@H](O)CN1C(=O)[C@@H](Cc1ccc(O)cc1)NC(C)=O)[C@@H](C)O)C(=O)N[C@@H](Cc1c[nH]c2ccccc12)C(N)=O", "note": "[Compound No. 845, Ac-D-Tyr-Hyp-Cit-Thr-Phe-AzaGly-Leu-Arg(Me)-Trp-NH2] (Ac-[dY][Hyp][Cit]TF[azaGly]L[Arg(Me)]W-NH2)", "Specific Activity: intracellular Ca ion level-increasing activity [specific activity to Metastin (1-54)]": 1.0}
    ]}
  ]
}
